The values below come from ChEMBL document CHEMBL5724709, “EUbOPEN Chemogenomics Library - IncuCyte” (2024).

SMILES strings stand for the structures. Several values for one entry are separate records, joined by “and”; a condition that tells them apart may be missing. Equal entries are not always repeated. Peptide text beside a SMILES is read from it. * marks the point of attachment. Cbz = O=C(OCc1ccccc1)*; CH2Cl = ClC*; CH2F = FC*

What all share (format): toxicity, cell-based
Data set [1] has as its system HEK-293T. Kind of data set: Incucyte cell viability with HEK293T. Conditions: human, 24 h, 10 µM, compound concentration 10 uM.
Data set [2] deals with Fibroblast. Kind of data set: Incucyte cell viability with human fibroblast. The note with it: 24 h, 10 µM, compound concentration 10 uM.
The subject of data set [3] is U2OS. Kind of data set: Incucyte cell viability with U2OS. Conditions: human, 24 h, 10 µM, compound concentration 10 uM.
Note: unitless GR value; below 1 slowed growth and below 0 cell loss.

`CC(=O)N[C@@H](CC(C)C)C(=O)N[C@@H](CCC(=O)O)C(=O)N[C@@H](Cc1cnc[nH]1)C(=O)N[C@@H](CC(=O)O)C(=O)CCl.O=C(O)C(F)(F)F` (Ac-LEHD-CH2Cl): the “Growth Rate” value came to 0.35 in data set [1] (replicate number 1); 0.95 in data set [1] (replicate number 2); 0.44 in data set [2] (replicate number 1); 1 in data set [2] (replicate number 2); 0.62 in data set [3] (replicate number 1); 1 in data set [3] (replicate number 2).
As to `CC(=O)N[C@@H](CC(C)C)C(=O)N[C@@H](CCC(=O)O)C(=O)N[C@H](C(=O)N[C@H](C=O)CC(=O)O)C(C)C` (Ac-LEVD-aldehyde), the “Growth Rate” value in data set [1] (replicate number 1) was found to be 0.89; in data set [1] (replicate number 2) it was 0.82; in data set [2] (replicate number 1), 0.82; in data set [2] (replicate number 2), 0.19; in data set [3] (replicate number 1), 0.75; in data set [3] (replicate number 2) it was 1.
Turning to `O=C(NCCc1cc(C(=O)NO)no1)c1ccc(Cl)c(Cl)c1`, the “Growth Rate” value was 0.99 in data set [1] (replicate number 1); 1 in data set [1] (replicate number 2); 1 in data set [2] (replicate number 1); 0.22 in data set [2] (replicate number 2); 0.33 in data set [3] (replicate number 1); 1 in data set [3] (replicate number 2).
As to `COc1ccc(/C=C/C(=O)NO)c(-c2ccc(-c3ccccc3)cc2)c1`, the “Growth Rate” value is 0.41 in data set [1] (replicate number 1); 0.49 in data set [1] (replicate number 2); -0.1 in data set [2] (replicate number 1); -0.52 in data set [2] (replicate number 2); -0.07 in data set [3] (replicate number 1); 1 in data set [3] (replicate number 2).
As to `CCCN1CCN(c2ccc(C(=O)NC3(C(=O)NCC#N)CCCCC3)cc2)CC1` [BALICATIB], the “Growth Rate” value turned out to be 0.79 in data set [1] (replicate number 1); 0.95 in data set [1] (replicate number 2); 1 in data set [2] (replicate number 1); 1 in data set [3] (replicate number 1); 0.86 in data set [3] (replicate number 2).
`Cc1cc(/N=N/c2ccc3c(c2)CCC(=O)N3)c(N)cc1O`: the “Growth Rate” value in data set [1] (replicate number 1) came to 0.63; in data set [1] (replicate number 2) it was 0.88; in data set [2] (replicate number 1), 1; in data set [3] (replicate number 1) it was 0.36; in data set [3] (replicate number 2), 1.
As for `Cn1c(=O)c2c(nc(N3CCNCC3)n2Cc2nnc(-c3ccc(Cl)c(Cl)c3)o2)n(C)c1=O`, the “Growth Rate” value in data set [1] (replicate number 1) is on record as 0.79; in data set [1] (replicate number 2) it was 1; in data set [2] (replicate number 1), 1; in data set [3] (replicate number 1), 1; in data set [3] (replicate number 2) it was 0.88.
With `O=CC1CCCN1C(=O)C1CCCN1C(=O)OCc1ccccc1` (stereo not drawn) (Cbz-Pro-Pro-aldehyde; configuration not given here), the “Growth Rate” value is reported as 0.88 in data set [1] (replicate number 1); 0.71 in data set [1] (replicate number 2); 0.22 in data set [2] (replicate number 1); 0.25 in data set [2] (replicate number 2); 0.37 in data set [3] (replicate number 1); 0.84 in data set [3] (replicate number 2).
For `CC(C)N(CCCNC(=O)Nc1ccc(C(C)(C)C)cc1)C[C@H]1O[C@@H](n2ccc3c(N)ncnc32)[C@H](O)[C@@H]1O`, the “Growth Rate” value in data set [1] (replicate number 1) turned out to be 0.74; in data set [1] (replicate number 2) it was 0.84; in data set [2] (replicate number 1) it was 1; in data set [3] (replicate number 1), 1; in data set [3] (replicate number 2), 0.59.
As for `CNC(=O)c1ccc(-c2cc3cccc(-c4nn(C5CCOCC5)c5c4CN(C(C)=O)CC5)c3cn2)cn1`, the “Growth Rate” value in data set [1] (replicate number 1) is listed as 0.61; in data set [1] (replicate number 2), 0.57; in data set [2] (replicate number 1) it was 1; in data set [3] (replicate number 1) it was 0.12; in data set [3] (replicate number 2) it was 0.95.
Regarding `Cc1cc(-c2ccc3nc(C4CCOCC4)n(CCOC(F)(F)F)c3c2)cn(C)c1=O`, the “Growth Rate” value is recorded as 0.62 in data set [1] (replicate number 1); 0.67 in data set [1] (replicate number 2); 0.36 in data set [2] (replicate number 1); -0.06 in data set [2] (replicate number 2); -0.23 in data set [3] (replicate number 1); 0.68 in data set [3] (replicate number 2).
With `COc1cc2c(NC3CCN(C)CC3)cc(-c3ccc(C)o3)nc2cc1OCCCN1CCCC1`, the “Growth Rate” value in data set [1] (replicate number 1) is -0.35; in data set [1] (replicate number 2) it was -0.25; in data set [2] (replicate number 1) it was 0.13; in data set [2] (replicate number 2) it was -0.42; in data set [3] (replicate number 1), -0.74; in data set [3] (replicate number 2), -0.55.
For the molecule `COC(=O)CC[C@H](NC(=O)[C@H](C)NC(=O)OCc1ccccc1)C(=O)N[C@H](C(=O)N[C@@H](CC(=O)OC)C(=O)CF)C(C)C` (Cbz-AE(OMe)VD(OMe)-CH2F), the “Growth Rate” value was 0.7 in data set [1] (replicate number 1); 0.98 in data set [1] (replicate number 2); 0.35 in data set [2] (replicate number 1); 1 in data set [2] (replicate number 2); 1 in data set [3] (replicate number 1).
In the case of `O=C1C(=O)N(Cc2ccccc2)c2ccc(S(=O)(=O)N3CCC[C@H]3COc3ccc(C(F)(F)F)cc3)cc21`, the “Growth Rate” value in data set [1] (replicate number 1) was -0.25; in data set [1] (replicate number 2), -0.13; in data set [2] (replicate number 1) it was -0.08; in data set [2] (replicate number 2), 0.99; in data set [3] (replicate number 1), -0.63; in data set [3] (replicate number 2), -0.25.
Turning to `CN1CCN(c2cc(C(=O)Nc3ncc(SCc4cccc(C(F)(F)F)c4)s3)ccn2)CC1`, the “Growth Rate” value in data set [1] (replicate number 1) was found to be 0.24; in data set [1] (replicate number 2) it was 0.59; in data set [2] (replicate number 1), 0.19; in data set [2] (replicate number 2), 1; in data set [3] (replicate number 1), 0.31; in data set [3] (replicate number 2), 0.48.
With `C[C@]12CC[C@@H]3c4ccc(O)cc4C[C@@H](CCCCCCCCC[S+]([O-])CCCC(F)(F)C(F)(F)F)[C@H]3[C@@H]1CC[C@@H]2O` (some centres undefined) [FULVESTRANT], the “Growth Rate” value in data set [1] (replicate number 1) is 0.5; in data set [1] (replicate number 2), 0.53; in data set [2] (replicate number 1), 1; in data set [3] (replicate number 1), 0.86; in data set [3] (replicate number 2) it was 0.65.
As for `Nc1ccccc1NC(=O)CCCCCC(=O)Nc1ccccc1`, the “Growth Rate” value is listed as 1 in data set [1] (replicate number 1); 1 in data set [2] (replicate number 1); -0.07 in data set [2] (replicate number 2); 0.46 in data set [3] (replicate number 1); 1 in data set [3] (replicate number 2).
On to `CC/C(=C(/CC)c1ccc(O)cc1)c1ccc(O)cc1` [DIETHYLSTILBESTROL], for which the “Growth Rate” value is listed as 0.72 in data set [1] (replicate number 1); 0.87 in data set [1] (replicate number 2); 0.45 in data set [2] (replicate number 1); 0.22 in data set [2] (replicate number 2); 1 in data set [3] (replicate number 1); 0.74 in data set [3] (replicate number 2).
Take `COc1ccccc1C(=O)Nc1cc2c(cc1N1CCCCC1)n(C)c(=O)n2C`: the “Growth Rate” value in data set [1] (replicate number 1) was found to be 0.58; in data set [1] (replicate number 2), 0.99; in data set [2] (replicate number 1), 1; in data set [3] (replicate number 1), 1.
Consider `O=c1[nH]ccc2cc(F)c(NS(=O)(=O)c3ccc(N4CC[C@@H](O)C4)s3)cc12`, for which the “Growth Rate” value in data set [1] (replicate number 1) was 0.79; in data set [1] (replicate number 2), 0.98; in data set [2] (replicate number 1), 0.99; in data set [2] (replicate number 2), 0.64; in data set [3] (replicate number 1), 1; in data set [3] (replicate number 2) it was 0.94.
Regarding `COc1cc2c(Nc3ccc(Br)cc3F)ncnc2cc1OCC1CCN(C)CC1` [VANDETANIB], the “Growth Rate” value in data set [1] (replicate number 1) is -0.15; in data set [1] (replicate number 2), 0.26; in data set [2] (replicate number 1), 0.22; in data set [2] (replicate number 2) it was -0.22; in data set [3] (replicate number 1) it was -0.56; in data set [3] (replicate number 2) it was 0.01.
In the case of `COC[C@H](NC(=O)c1ccn(S(C)(=O)=O)c1)C(=O)Nc1nc(-c2cccc(-c3ccn(C)n3)c2)cs1`, the “Growth Rate” value came out at 1 in data set [1] (replicate number 1), 0.89 in data set [2] (replicate number 1), 1 in data set [2] (replicate number 2) and 0.77 in data set [3] (replicate number 1).
For `Nc1cc(F)ccc1NC(=O)c1ccc(CNC(=O)/C=C/c2cccnc2)cc1` [TUCIDINOSTAT], the “Growth Rate” value in data set [1] (replicate number 1) is on record as 1; in data set [2] (replicate number 1) it was 1; in data set [3] (replicate number 1), -0.5; in data set [3] (replicate number 2), 0.82.
As for `CN1CCN(c2ccc3nc(-c4c(N)c5c(F)cccc5[nH]c4=O)[nH]c3c2)CC1` [DOVITINIB], the “Growth Rate” value in data set [1] (replicate number 1) was -0.39; in data set [1] (replicate number 2), -0.2; in data set [2] (replicate number 1) it was 1; in data set [3] (replicate number 1) it was -0.35; in data set [3] (replicate number 2), -0.04.
On to `COc1cc(C)[nH]c(=O)c1CNC(=O)c1c(C)n([C@H](C)C2CCN(CC(F)(F)F)CC2)c2ccccc12` [CPI-1205], for which the “Growth Rate” value in data set [1] (replicate number 1) was 0.61; in data set [1] (replicate number 2) it was 0.95; in data set [2] (replicate number 1), 0.99; in data set [2] (replicate number 2), 0.13; in data set [3] (replicate number 1) it was 0.59; in data set [3] (replicate number 2), 0.83.
Turning to `Nc1ccccc1NC(=O)c1ccc(CNC(=O)OCc2cccnc2)cc1` [ENTINOSTAT], the “Growth Rate” value is listed as 1 in data set [1] (replicate number 1); -0.02 in data set [2] (replicate number 1); 0.43 in data set [2] (replicate number 2); -0.2 in data set [3] (replicate number 1); 0.57 in data set [3] (replicate number 2).
For `CCCCN(Cc1ccc(C(=O)NO)cc1)C(=O)Nc1ccccc1` [NEXTURASTAT A], the “Growth Rate” value is 1 in data set [1] (replicate number 1); 1 in data set [2] (replicate number 1); -0.22 in data set [2] (replicate number 2); -0.18 in data set [3] (replicate number 1); 0.6 in data set [3] (replicate number 2).
With `COc1cc2c(NC3CCN(C4CCCCC4)CC3)nc(N3CCCN(C(C)C)CC3)nc2cc1OCCCN1CCCCC1`, the “Growth Rate” value in data set [1] (replicate number 1) is reported as -0.52; in data set [1] (replicate number 2), -0.39; in data set [2] (replicate number 1) it was 0.42; in data set [2] (replicate number 2) it was 0.22; in data set [3] (replicate number 1), -0.09; in data set [3] (replicate number 2) it was 0.29.
With `O=C(CCCCCCC(=O)Nc1ccc([C@H]2O[C@@H](CSc3nc(-c4ccccc4)c(-c4ccccc4)o3)C[C@@H](c3ccc(CO)cc3)O2)cc1)NO` [TUBACIN], the “Growth Rate” value was 0.85 in data set [1] (replicate number 1); 1 in data set [1] (replicate number 2); 1 in data set [2] (replicate number 1); -0.34 in data set [2] (replicate number 2); 1 in data set [3] (replicate number 1); 0.73 in data set [3] (replicate number 2).
For `Cc1ccc(C(=O)NCCCCCC(=O)Nc2ccccc2N)cc1`, the “Growth Rate” value is 1 in data set [1] (replicate number 1); 0.95 and 0.84 in data set [3] (replicate number 2).
